Here are results for two compounds from patent US6946427B2, “Preservative blends containing iodine containing compounds” (Lonza Inc., priority 2001, dated 2005).

For this experiment, the system named is S. aureus, P. aeruginosa, and E. coli. Kind of experiment: Preservative challenge test in anionic protein shampoo inoculated with mixed bacteria; plate counts and Kull synergism value. The experiment is classed as cell-based.

Like-named read-outs stand apart in the source and are kept apart here.

In the case of `O=C([O-])c1ccccc1O.[Na+]` [Sodium Salicylate, sodium salicylate], the “Qa, concentration of sodium salicylate alone required to yield 100% retardation of the bacteria” value is recorded as over 1.00%; the “S. aureus, P. aeruginosa, and E. coli (cfu/g) Day 0” value is given as 3.0 × 10^6 cfu/g; the “S. aureus, P. aeruginosa, and E. coli (cfu/g) Day 14” value is recorded as 5.0 × 10^2 cfu/g.
`CC(=O)c1c([O-])cc(C)oc1=O.O.[Na+]` [Sodium Dehydroacetate Monohydrate, sodium dehydroacetate monohydrate]: the “S. aureus, P. aeruginosa, and E. coli (cfu/g) Day 0” value (anionic protein shampoo, single preservative, printed ">0.5%" by weight, Day 0) is listed as 3.0 × 10^6 cfu/g. Besides, the “S. aureus, P. aeruginosa, and E. coli (cfu/g) Day 14” value (anionic protein shampoo, single preservative, printed ">0.5%" by weight, Day 14) is listed as 4.0 × 10^3 cfu/g. Moreover, the “Qc, concentration of sodium dehydroacetate monohydrate alone required to yield 100% retardation of the bacteria” value (percent by weight, plate count <10 cfu/g after 14 days) is recorded as over 0.50%.
